Experimental data taken from PubChem BioAssay AID330 (DTP/NCI, 2004).
Several values for one entry are separate records, joined by “and”; a condition that tells them apart may be missing. Identical values can stand only once. Toxic doses and inconclusive results are not listed.

System: P388 leukemia ip, CD2F1 mice, survival T/C
Test: NCI In Vivo Anticancer Drug Screen. Data for tumor model P388 Leukemia (intraperitoneal) in CD2F1 (CDF1) mice
Conditions: endpoint: median survival time, higher = longer survival
How it was run: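 Mice carrying the transplanted tumor received test compound or vehicle. Survival was recorded in each group, and the value is the treated-group measurement divided by that of the vehicle-treated control group.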

[1] = dose: 50.0 mg/kg/injection, schedule: Q01DX005 (ip), vehicle: Klucel (hydroxypropylcellulose) (HPC)
[2] = dose: 100.0 mg/kg/injection, schedule: Q01DX005 (ip), vehicle: Klucel (hydroxypropylcellulose) (HPC)
[3] = dose: 200.0 mg/kg/injection, schedule: Q01DX005 (ip), vehicle: Klucel (hydroxypropylcellulose) (HPC)

SMILES: O=P1(N(CCCl)CCCl)NCCCO1 (stereo unspecified)
- T/C (dose: 4.0 mg/kg/injection, schedule: Q01DX009 (ip), vehicle: saline): 116 % of control and 122 % of control
- T/C (dose: 6.25 mg/kg/injection, schedule: Q01DX009 (ip), vehicle: saline): 150 % of control and 151 % of control
- T/C (dose: 8.0 mg/kg/injection, schedule: Q01DX009 (ip), vehicle: saline): 150 % of control
- T/C (dose: 10.0 mg/kg/injection, schedule: Q04DX003 (iv), vehicle: saline): 119 % of control
- T/C (dose: 12.5 mg/kg/injection, schedule: Q01DX009 (ip), vehicle: saline): 153 % of control and 185 % of control and 192 % of control
- T/C (dose: 15.0 mg/kg/injection, schedule: Q04DX003 (ip), vehicle: saline): 150 % of control
- T/C (dose: 16.0 mg/kg/injection, schedule: Q01DX009 (ip), vehicle: saline): 183 % of control and 188 % of control
- T/C (dose: 16.2 mg/kg/injection, schedule: Q04DX003 (ip), vehicle: saline): 153 % of control
- T/C (dose: 20.0 mg/kg/injection, schedule: Q01DX009 (ip), vehicle: saline): 187 % of control
- T/C (dose: 20.0 mg/kg/injection, schedule: Q04DX003 (ip), vehicle: water): 164 % of control
- T/C (dose: 20.0 mg/kg/injection, schedule: Q04DX003 (iv), vehicle: saline): 158 % of control
- T/C (dose: 22.2 mg/kg/injection, schedule: Q01DX009 (ip), vehicle: saline): 213 % of control
- T/C (dose: 25.0 mg/kg/injection, schedule: Q04DX003 (ip), vehicle: water): 110 % of control
- T/C (dose: 27.0 mg/kg/injection, schedule: Q04DX003 (ip), vehicle: saline): 178 % of control
- T/C (dose: 28.8 mg/kg/injection, schedule: Q01DX005 (ip), vehicle: saline): 190 % of control
- T/C (dose: 30.0 mg/kg/injection, schedule: Q01DX010 (ip), vehicle: water): 272 % of control
- T/C (dose: 30.0 mg/kg/injection, schedule: Q04DX003 (ip), vehicle: saline): 195 % of control
- T/C (dose: 31.3 mg/kg/injection, schedule: Q01DX001 (iv), vehicle: saline): 174 % of control
- T/C (dose: 32.4 mg/kg/injection, schedule: Q04DX002 (ip), vehicle: saline): 163 % of control and 178 % of control
- T/C (dose: 33.3 mg/kg/injection, schedule: Q01DX009 (ip), vehicle: saline): 261 % of control
- T/C (dose: 36.0 mg/kg/injection, schedule: Q01DX009 (ip), vehicle: saline): 258 % of control
- T/C (dose: 38.9 mg/kg/injection, schedule: Q04DX003 (ip), vehicle: saline): 227 % of control
- T/C (dose: 40.0 mg/kg/injection, schedule: Q04DX003 (ip), vehicle: saline): 197 % of control and 204 % of control
- T/C (dose: 40.0 mg/kg/injection, schedule: Q04DX003 (ip), vehicle: water): 225 % of control
- T/C (dose: 40.0 mg/kg/injection, schedule: Q04DX003 (iv), vehicle: saline): 203 % of control
- T/C (dose: 45.0 mg/kg/injection, schedule: Q01DX010 (ip), vehicle: water): 240 % of control
- T/C (dose: 45.0 mg/kg/injection, schedule: Q04DX003 (ip), vehicle: saline): 324 % of control
- T/C (dose: 48.0 mg/kg/injection, schedule: Q01DX005 (ip), vehicle: saline): 240 % of control
- T/C (dose: 48.0 mg/kg/injection, schedule: Q01DX009 (ip), vehicle: saline): 118 % of control
- T/C (dose: 50.0 mg/kg/injection, schedule: Q01DX001 (ip), vehicle: water): 157 % of control and 160 % of control
- T/C (dose: 50.0 mg/kg/injection, schedule: Q01DX009 (ip), vehicle: water): 103 % of control
- T/C (dose: 50.0 mg/kg/injection, schedule: Q04DX003 (ip), vehicle: water): 198 % of control and 214 % of control
- T/C (dose: 54.0 mg/kg/injection, schedule: Q04DX002 (ip), vehicle: saline): 209 % of control and 213 % of control
- T/C (dose: 60.0 mg/kg/injection, schedule: Q01DX009 (ip), vehicle: saline): 99 % of control
- T/C (dose: 60.0 mg/kg/injection, schedule: Q04DX003 (ip), vehicle: saline): 274 % of control
- T/C (dose: 62.5 mg/kg/injection, schedule: Q01DX001 (iv), vehicle: saline): 220 % of control
- T/C (dose: 64.0 mg/kg/injection, schedule: Q01DX009 (ip), vehicle: saline): 187 % of control and 194 % of control
- T/C (dose: 64.8 mg/kg/injection, schedule: Q04DX003 (ip), vehicle: saline): 317 % of control
- T/C (dose: 70.0 mg/kg/injection, schedule: Q04DX003 (ip), vehicle: saline): 225 % of control
- T/C (dose: 73.0 mg/kg/injection, schedule: Q04DX003 (ip), vehicle: saline): 300 % of control
- T/C (dose: 75.0 mg/kg/injection, schedule: Q01DX009 (ip), vehicle: saline): 157 % of control
- T/C (dose: 75.0 mg/kg/injection, schedule: Q01DX010 (ip), vehicle: water): 118 % of control
- T/C (dose: 75.0 mg/kg/injection, schedule: Q04DX003 (ip), vehicle: saline): 358 % of control
- T/C (dose: 80.0 mg/kg/injection, schedule: Q01DX001 (ip), vehicle: saline): 155 % of control
- T/C (dose: 80.0 mg/kg/injection, schedule: Q04DX003 (ip), vehicle: saline): 216 % of control and 284 % of control
- T/C (dose: 80.0 mg/kg/injection, schedule: Q04DX003 (ip), vehicle: water): 269 % of control
- T/C (dose: 80.0 mg/kg/injection, schedule: Q04DX003 (iv), vehicle: saline): 194 % of control
- T/C (dose: 90.0 mg/kg/injection, schedule: Q04DX002 (ip), vehicle: saline): 220 % of control and 228 % of control
- T/C (dose: 100.0 mg/kg/injection, schedule: Q01DX001 (ip), vehicle: water): 199 % of control and 221 % of control
- T/C (dose: 100.0 mg/kg/injection, schedule: Q04DX003 (ip), vehicle: water): 288 % of control and 324 % of control
- T/C (dose: 108.0 mg/kg/injection, schedule: Q04DX003 (ip), vehicle: saline): 152 % of control
- T/C (dose: 119.0 mg/kg/injection, schedule: Q01DX001 (ip), vehicle: saline): 245 % of control
- T/C (dose: 125.0 mg/kg/injection, schedule: Q01DX001 (iv), vehicle: saline): 350 % of control
- T/C (dose: 125.0 mg/kg/injection, schedule: Q04DX003 (ip), vehicle: saline): 189 % of control and 196 % of control
- T/C (dose: 150.0 mg/kg/injection, schedule: Q04DX002 (ip), vehicle: saline): 394 % of control and 409 % of control
- T/C (dose: 150.0 mg/kg/injection, schedule: Q## X001 (ip), vehicle: saline): 111 % of control and 231 % of control and 260 % of control
- T/C (dose: 160.0 mg/kg/injection, schedule: Q01DX001 (ip), vehicle: saline): 114 % of control and 232 % of control
- T/C (dose: 165.0 mg/kg/injection, schedule: Q04DX003 (ip), vehicle: saline): 221 % of control
- T/C (dose: 180.0 mg/kg/injection, schedule: Q04DX003 (ip), vehicle: saline): 118 % of control
- T/C (dose: 200.0 mg/kg/injection, schedule: Q01DX001 (ip), vehicle: water): 281 % of control and 291 % of control
- T/C (dose: 250.0 mg/kg/injection, schedule: Q01DX001 (ip), vehicle: saline): 98 % of control
- T/C (dose: 250.0 mg/kg/injection, schedule: Q01DX001 (iv), vehicle: saline): 353 % of control
- T/C (dose: 320.0 mg/kg/injection, schedule: Q01DX001 (ip), vehicle: saline): 215 % of control and 252 % of control
- T/C (dose: 600.0 mg/kg/injection, schedule: Q01DX001 (ip), vehicle: water): 100 % of control

SMILES: OCC(O)C(O)C(O)C(O)CO (stereo unspecified)
- T/C (dose: 400.0 mg/kg/injection, schedule: Q01DX009 (ip), vehicle: saline): 107 % of control
- T/C (dose: 1200.0 mg/kg/injection, schedule: Q01DX009 (ip), vehicle: saline): 110 % of control
- T/C (dose: 1600.0 mg/kg/injection, schedule: Q01DX005 (ip), vehicle: saline): 106 % of control
- T/C (dose: 2400.0 mg/kg/injection, schedule: Q01DX005 (ip), vehicle: saline): 104 % of control

SMILES: Nc1ccc(N)c2c1C(=O)c1c(N)ccc(N)c1C2=O
- T/C [1]: 102 % of control
- T/C [2]: 100 % of control
- T/C [3]: 101 % of control

SMILES: CC1CC(C)(C)N=C(C2(c3ccccc3)CC2)O1 (stereo unspecified)
- T/C (dose: 50.0 mg/kg/injection, schedule: Q01DX009 (ip), vehicle: saline with Tween-80): 109 % of control
- T/C (dose: 100.0 mg/kg/injection, schedule: Q01DX009 (ip), vehicle: saline with Tween-80): 109 % of control
- T/C (dose: 200.0 mg/kg/injection, schedule: Q01DX009 (ip), vehicle: saline with Tween-80): 100 % of control

SMILES: N#CC(C(=O)C(=O)C(C#N)c1nc2ccccc2s1)c1nc2ccccc2s1 (stereo unspecified)
- T/C (dose: 60.0 mg/kg/injection, schedule: Q01DX005 (ip), vehicle: saline with Tween-80): 92 % of control
- T/C (dose: 120.0 mg/kg/injection, schedule: Q01DX005 (ip), vehicle: saline with Tween-80): 101 % of control
- T/C (dose: 240.0 mg/kg/injection, schedule: Q01DX005 (ip), vehicle: saline with Tween-80): 103 % of control

SMILES: CCN1CCCc2cc3c(C(F)(F)F)cc(=O)oc3cc21
- T/C [1]: 97 % of control
- T/C [2]: 106 % of control
- T/C [3]: 97 % of control

SMILES: OCc1c(-c2ccc(Cl)cc2)c(-c2ccccc2)c2n1CCC2
- T/C [1]: 94 % of control
- T/C [2]: 91 % of control
- T/C [3]: 92 % of control
